Assay results taken from US20060094765A1, “Use of a sri and vitamin b6 for the treatment of neurological and mental disorders” (Pantarhei Bioscience B.V., priority 2002, published 2006).

Legend:
[1] = Chronic mild stress (CMS) model of depression, sucrose consumption; type: in vivo, Male Wistar rats; settings: unstressed control rats; citalopram 2.5 or 5.0 mg/kg, alone or with pyridoxine 10 mg/kg, i.p. daily, 5 weeks
Source text: (§1) Chronic mild stress (CMS), a well-validated preclinical model of depression (Willner, 1997, Validity, reliability and utility of the chronic mild stress model of depression: a 10-year review and evaluation. Psychopharmacology, 134, 319-329, […] et al., 2002, Preclinical models: status of basic research in depression, Soc. Biol. Psych., 52, 503-528), was used to study the effects of combined therapy of SRI with pyridoxine on responder rate and the time to achieve a full drug response ('onset of action') as compared to treatment with SRI alone. Citalopram, as an example of a SRI, was combined with either pyridoxine or vehicle and administered to chronically, mildly stressed rats during a 5-week treatment schedule. Consumption of sucrose solution after fasting, which a commonly accepted measure of anhedonia, i.e. inability to experience pleasure, was chosen for readout, since this is a core symptom of human depressive disorders. Male Wistar rats were brought into the laboratory two months before the start of the experiment for acclimatization and training (see below). During this period, the animals were singly housed and were maintained on a 12-h light/dark cycle (lights on at 08.00) at a constant temperature of 22±2° C. and humidity (55±5%). Food pellets (containing an optimal level of 1 mg/kg pyridoxine) and water were freely available, with the exception of the deprivation procedure as described below. During a period of 5 weeks, rats were trained to consume a 1% sucrose solution. Training consisted of ten 1-h baseline tests (twice weekly) in which sucrose was presented, in the home cage, following 14 h of food and water deprivation. Sucrose intake was measured by weighing pre-weighed bottles containing the sucrose solution, at the end of the test. Subsequently, sucrose consumption was monitored, under similar conditions, at weekly intervals throughout the whole experiment. […] Mean values in sucrose consumption during stress and subsequently the 5 weeks of vehicle and drug treatment in control and stressed animals were calculated. […]

[2] = tested on: chronically, mildly stressed rats; assay: as above; type: in vivo, Male Wistar rats; settings: stressed rats, n=8, alone or with pyridoxine 10 mg/kg
Source text: as §1

CN(C)CCCC1(c2ccc(F)cc2)OCc2cc(C#N)ccc21 (stereo not drawn) [citalopram]
effect on sucrose intake in control animals [1]: no significant effect | responder rate (rats exhibiting increased sucrose intake) ([2]; citalopram 2.5 mg/kg i.p. daily for 5 weeks): 50% | responder rate (rats exhibiting increased sucrose intake) ([2]; citalopram 5.0 mg/kg i.p. daily for 5 weeks): 62.5%
